{"source": "patent US6355799B1", "about": "“Substituted benzene compounds, process for their preparation, and herbicidal and defoliant compositions containing them” (ISK Americas Incorporated, priority 1997, dated 2002)", "format_in_all_cases": "in vivo", "key": {"[1]": {"tested_on": "barnyardgrass (Echinochloa crus-galli, ECHCG)", "test": "Post-emerge test, greenhouse herbicide activity screening", "details": "post-emerge, 14 days after application, rating scale 0-100", "outline": "(§1)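 Compounds in acetone were track-sprayed at 15-1000 g ai/ha (187 l/ha) on sandy loam pots: pre-emerge one day after seeding, post-emerge at 2-3 leaf stage with 0.25% v/v non-ionic surfactant. Phytotoxicity was rated 14 days later on a 0 (no damage) to 100 (complete death) scale.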"}, "[2]": {"tested_on": "sicklepod (Cassia obtusifolia, CASOB)", "test": "Post-emerge test, greenhouse herbicide activity screening", "details": "post-emerge, 14 days after application, rating scale 0-100", "outline": "as §1"}, "[3]": {"tested_on": "common ragweed (Ambrosia artemisizfolia L., AMBEL)", "test": "Post-emerge test, greenhouse herbicide activity screening", "details": "post-emerge, 14 days after application, rating scale 0-100", "outline": "as §1"}, "[4]": {"tested_on": "ivyleaf morningglory (Ipomoea hederacea, IPOHE)", "test": "Post-emerge test, greenhouse herbicide activity screening", "details": "post-emerge, 14 days after application, rating scale 0-100", "outline": "as §1"}, "[5]": {"tested_on": "lambsquarters (Chenopodium album, CHEAL)", "test": "Post-emerge test, greenhouse herbicide activity screening", "details": "post-emerge, 14 days after application, rating scale 0-100", "outline": "as §1"}, "[6]": {"tested_on": "large crabgrass (Digitaria sanguinalis, DIGSA)", "test": "Post-emerge test, greenhouse herbicide activity screening", "details": "post-emerge, 14 days after application, rating scale 0-100", "outline": "as §1"}, "[7]": {"tested_on": "johnsongrass (Sorghum halepense, SORHA)", "test": "Post-emerge test, greenhouse herbicide activity screening", "details": "post-emerge, 14 days after application, rating scale 0-100", "outline": "as §1"}, "[8]": {"tested_on": "redroot pigweed (Amaranthus retroflexus, AMARE)", "test": "Post-emerge test, greenhouse herbicide activity screening", "details": "post-emerge, 14 days after application, rating scale 0-100", "outline": "as §1"}, "[9]": {"tested_on": "velvetleaf (Abutilon theophrasti, ABUTH)", "test": "Post-emerge test, greenhouse herbicide activity screening", "details": "post-emerge, 14 days after application, rating scale 0-100", "outline": "as §1"}, "[10]": {"tested_on": "barnyardgrass (Echinochloa crus-galli, ECHCG)", "test": "Pre-emerge test, greenhouse herbicide activity screening", "details": "rated 14 days after application, 0 = no damage, 100 = complete death", "outline": "(§2)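 Sandy loam pots; pre-emerge: sown 1 d pre-spray, surface-watered after, then bottom-watered. Post-emerge: sown 8–21 d before, 2–3 leaf stage, + 0.25% v/v NIS, bottom-watered. Acetone, 187 l/ha track spray, 15–1000 g ai/ha. 0–100 injury score, day 14.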"}, "[11]": {"tested_on": "sicklepod (Cassia obtusifolia, CASOB)", "test": "Pre-emerge test, greenhouse herbicide activity screening", "details": "rated 14 days after application, 0 = no damage, 100 = complete death", "outline": "as §2"}, "[12]": {"tested_on": "common ragweed (Ambrosia artemisizfolia L., AMBEL)", "test": "Pre-emerge test, greenhouse herbicide activity screening", "details": "rated 14 days after application, 0 = no damage, 100 = complete death", "outline": "as §2"}, "[13]": {"tested_on": "green foxtail (Setaria viridis, SETVI)", "test": "Pre-emerge test, greenhouse herbicide activity screening", "details": "rated 14 days after application, 0 = no damage, 100 = complete death", "outline": "as §2"}, "[14]": {"tested_on": "ivyleaf morningglory (Ipomoea hederacea, IPOHE)", "test": "Pre-emerge test, greenhouse herbicide activity screening", "details": "rated 14 days after application, 0 = no damage, 100 = complete death", "outline": "as §2"}, "[15]": {"tested_on": "lambsquarters (Chenopodium album, CHEAL)", "test": "Pre-emerge test, greenhouse herbicide activity screening", "details": "rated 14 days after application, 0 = no damage, 100 = complete death", "outline": "as §2"}, "[16]": {"tested_on": "large crabgrass (Digitaria sanguinalis, DIGSA)", "test": "Pre-emerge test, greenhouse herbicide activity screening", "details": "rated 14 days after application, 0 = no damage, 100 = complete death", "outline": "as §2"}, "[17]": {"tested_on": "johnsongrass (Sorghum halepense, SORHA)", "test": "Pre-emerge test, greenhouse herbicide activity screening", "details": "rated 14 days after application, 0 = no damage, 100 = complete death", "outline": "as §2"}, "[18]": {"tested_on": "velvetleaf (Abutilon theophrasti, ABUTH)", "test": "Pre-emerge test, greenhouse herbicide activity screening", "details": "rated 14 days after application, 0 = no damage, 100 = complete death", "outline": "as §2"}, "[19]": {"tested_on": "upland rice (Oryza sp., var. Tebonnet, RICE)", "test": "Post-emerge test, crop safety", "details": "post-emerge, 14 days after application, rating scale 0-100", "outline": "as §2"}, "[20]": {"tested_on": "field corn (Zea mays L., var. Dekalb 535, CORN)", "test": "Post-emerge test, crop safety", "details": "post-emerge, 14 days after application, rating scale 0-100", "outline": "as §2"}, "[21]": {"tested_on": "redroot pigweed (Amaranthus retroflexus, AMARE)", "test": "Pre-emerge test, greenhouse herbicide activity screening", "details": "rated 14 days after application, 0 = no damage, 100 = complete death", "outline": "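Visual ratings on a 0-100 scale (0 no damage, 100 all plants dead) were taken at 14 days after treatment. Rates of 15-1000 g ai/ha in acetone, 187 l/ha, were sprayed onto soil one day after planting (pre-emerge) or onto 2-3 leaf plants with 0.25% v/v surfactant (post-emerge).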"}, "[22]": {"tested_on": "upland rice (Oryza sp., var. Tebonnet, RICE)", "test": "Pre-emerge test, crop safety", "details": "rated 14 days after application, 0 = no damage, 100 = complete death", "outline": "(§3)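 Applied at 15–1000 g ai/ha from acetone in 187 l/ha spray volume. Post-emergence applications included 0.25% v/v non-ionic surfactant and reached plants sown 8–21 days before. Pre-emergence applications were incorporated by surface watering. Efficacy or crop damage was rated on a 0–100 scale after 14 days.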"}, "[23]": {"tested_on": "field corn (Zea mays L., var. Dekalb 535, CORN)", "test": "Pre-emerge test, crop safety", "details": "rated 14 days after application, 0 = no damage, 100 = complete death", "outline": "as §3"}}, "data": [{"smiles": "COc1c(Cl)cc(F)c(-n2c(=O)cc(C(F)(F)F)n(C)c2=O)c1NC(=O)c1ccc(OC(F)(F)F)cc1", "note": "[2-72]", "values": [{"measurement": "phytotoxicity rating ECHCG", "setting": "[1]; 63 g ai/ha", "result": 0}, {"measurement": "phytotoxicity rating ECHCG", "setting": "[1]; 250 g ai/ha", "result": 0}, {"measurement": "phytotoxicity rating CASOB", "setting": "[2]; 63 g ai/ha", "result": 70}, {"measurement": "phytotoxicity rating CASOB", "setting": "[2]; 250 g ai/ha", "result": 95}, {"measurement": "phytotoxicity rating AMBEL", "setting": "[3]; 63 g ai/ha", "result": 70}, {"measurement": "phytotoxicity rating AMBEL", "setting": "[3]; 250 g ai/ha", "result": 60}, {"measurement": "phytotoxicity rating IPOHE", "setting": "[4]; 63 g ai/ha", "result": 50}, {"measurement": "phytotoxicity rating IPOHE", "setting": "[4]; 250 g ai/ha", "result": 60}, {"measurement": "phytotoxicity rating CHEAL", "setting": "[5]; 63 g ai/ha", "result": 70}, {"measurement": "phytotoxicity rating CHEAL", "setting": "[5]; 250 g ai/ha", "result": 80}, {"measurement": "phytotoxicity rating DIGSA", "setting": "[6]; 63 g ai/ha", "result": 0}, {"measurement": "phytotoxicity rating DIGSA", "setting": "[6]; 250 g ai/ha", "result": 0}, {"measurement": "phytotoxicity rating SORHA", "setting": "[7]; 63 g ai/ha", "result": 0}, {"measurement": "phytotoxicity rating SORHA", "setting": "[7]; 250 g ai/ha", "result": 0}, {"measurement": "phytotoxicity rating AMARE", "setting": "[8]; 63 g ai/ha", "result": 70}, {"measurement": "phytotoxicity rating AMARE", "setting": "[8]; 250 g ai/ha", "result": 90}, {"measurement": "phytotoxicity rating ABUTH", "setting": "[9]; 63 g ai/ha", "result": 100}, {"measurement": "phytotoxicity rating ABUTH", "setting": "[9]; 250 g ai/ha", "result": 100}, {"measurement": "Pre-emerge Herbicidal Activity, phytotoxicity rating (0-100), ECHCG", "setting": "[10]; 63 g ai/ha", "result": 0}, {"measurement": "Pre-emerge Herbicidal Activity, phytotoxicity rating (0-100), ECHCG", "setting": "[10]; 250 g ai/ha", "result": 50}, {"measurement": "Pre-emerge Herbicidal Activity, phytotoxicity rating (0-100), CASOB", "setting": "[11]; 63 g ai/ha", "result": 30}, {"measurement": "Pre-emerge Herbicidal Activity, phytotoxicity rating (0-100), CASOB", "setting": "[11]; 250 g ai/ha", "result": 90}, {"measurement": "Pre-emerge Herbicidal Activity, phytotoxicity rating (0-100), AMBEL", "setting": "[12]; 63 g ai/ha", "result": 0}, {"measurement": "Pre-emerge Herbicidal Activity, phytotoxicity rating (0-100), AMBEL", "setting": "[12]; 250 g ai/ha", "result": 50}, {"measurement": "Pre-emerge Herbicidal Activity, phytotoxicity rating (0-100), SETVI", "setting": "[13]; 63 g ai/ha", "result": 60}, {"measurement": "Pre-emerge Herbicidal Activity, phytotoxicity rating (0-100), SETVI", "setting": "[13]; 250 g ai/ha", "result": 100}, {"measurement": "Pre-emerge Herbicidal Activity, phytotoxicity rating (0-100), IPOHE", "setting": "[14]; 63 g ai/ha", "result": 20}, {"measurement": "Pre-emerge Herbicidal Activity, phytotoxicity rating (0-100), IPOHE", "setting": "[14]; 250 g ai/ha", "result": 20}, {"measurement": "Pre-emerge Herbicidal Activity, phytotoxicity rating (0-100), CHEAL", "setting": "[15]; 63 g ai/ha", "result": 100}, {"measurement": "Pre-emerge Herbicidal Activity, phytotoxicity rating (0-100), CHEAL", "setting": "[15]; 250 g ai/ha", "result": 100}, {"measurement": "Pre-emerge Herbicidal Activity, phytotoxicity rating (0-100), DIGSA", "setting": "[16]; 63 g ai/ha", "result": 30}, {"measurement": "Pre-emerge Herbicidal Activity, phytotoxicity rating (0-100), DIGSA", "setting": "[16]; 250 g ai/ha", "result": 100}, {"measurement": "Pre-emerge Herbicidal Activity, phytotoxicity rating (0-100), SORHA", "setting": "[17]; 63 g ai/ha", "result": 0}, {"measurement": "Pre-emerge Herbicidal Activity, phytotoxicity rating (0-100), SORHA", "setting": "[17]; 250 g ai/ha", "result": 50}, {"measurement": "Pre-emerge Herbicidal Activity, phytotoxicity rating (0-100), ABUTH", "setting": "[18]; 63 g ai/ha", "result": 100}, {"measurement": "Pre-emerge Herbicidal Activity, phytotoxicity rating (0-100), ABUTH", "setting": "[18]; 250 g ai/ha", "result": 100}, {"measurement": "phytotoxicity rating RICE", "setting": "[19]; 63 g ai/ha", "result": 0}, {"measurement": "phytotoxicity rating RICE", "setting": "[19]; 250 g ai/ha", "result": 20}, {"measurement": "phytotoxicity rating CORN", "setting": "[20]; 63 g ai/ha", "result": 0}, {"measurement": "phytotoxicity rating CORN", "setting": "[20]; 250 g ai/ha", "result": 10}, {"measurement": "Pre-emerge Herbicidal Activity, phytotoxicity rating (0-100), AMARE", "setting": "[21]; 63 g ai/ha", "result": 100}, {"measurement": "Pre-emerge Herbicidal Activity, phytotoxicity rating (0-100), AMARE", "setting": "[21]; 250 g ai/ha", "result": 100}, {"measurement": "Pre-emerge phytotoxicity rating (0-100), crop damage, RICE", "setting": "[22]; 63 g ai/ha", "result": 10}, {"measurement": "Pre-emerge phytotoxicity rating (0-100), crop damage, RICE", "setting": "[22]; 250 g ai/ha", "result": 40}, {"measurement": "Pre-emerge phytotoxicity rating (0-100), crop damage, CORN", "setting": "[23]; 63 g ai/ha", "result": 0}, {"measurement": "Pre-emerge phytotoxicity rating (0-100), crop damage, CORN", "setting": "[23]; 250 g ai/ha", "result": 5}]}]}
